Measurements as given in article PMC8507696, “Effect of Peptide Receptor Radionuclide Therapy in Combination with Temozolomide against Tumor Angiogenesis in a Glioblastoma Model” (Cancers, 2021).

Columns and labels:
integrin αvβ3 = test: anti-integrin αvβ3 immunohistochemical staining of dissected tumor tissues; format: in vivo, BALB/c nu/nu nude mice; conditions: TMZ 5 mgkg^−1, after 2 weeks
Description: Tumor tissues were harvested on day 14 after the treatment and immediately fixed in 10% formalin solution. Frozen tissue sections (5 μm) were placed onto glass slides. The tumor sections were stained with anti-integrin αvβ3 rabbit antibody (1:1000, Millipore) at 4 °C for 16 h. The sections were then incubated with anti-rabbit secondary antibody (biotinylated) at room temperature for 1 h. The detection system (Vector Laboratories, Burlingame, CA, USA) was applied according to the manufacturer’s instructions. The nuclei were counter-stained with hematoxylin (Invitrogen, Carlsbad, CA, USA). For assessment of tumor vascularization, mouse anti-human CD31 monoclonal antibody (diluted 1:40, Dako) staining was performed on acetone-fixed cryosections using a blood vessel staining kit (ECM590, Millipore Ireland, Cork, Ireland). For another assessment of integrin αvβ3 receptors in dissected tumor tissues, anti-integrin αvβ3 (SC-7312, Santa Cruz Biotech, Santa Cruz, CA, USA) was used. Primary antibody against γH2AX (diluted 1:50, Abcam) was applied to acetone-fixed cryosections and incubated overnight. […] Images were acquired using Axioscope A1 fluorescent microscope (Carl Zeiss, Jena, Germany) or AxioCam MRc5 (Carl Zeiss, Jena, Germany) and analyzed with Axiovision software (version 4.4, Carl Zeiss Meditec, Jena, Germany). […]

U87-MG xenografts = test: combination therapy of TMZ with 188Re-IDA-D-[c(RGDfK)]2: tumor volume; format: in vivo, BALB/c nu/nu nude mice; conditions: TMZ 2 or 5 mgkg^−1 once a week for 14 days, n = 4
Description: A suspension of human glioblastoma U87-MG cells was prepared (5 × 10^6 cellsmL^−1). A total of 0.1 mL of cell suspension was injected subcutaneously into the right flank of a 6–7-week-old male BALB/c nu/nu nude mice (20–25 g, Orient Bio Inc., Seongnam, Korea). In the case of pharmacokinetic studies of ^99mTc-IDA-D-[c(RGDfK)]2, we used tumor xenograft mice whose tumor cells were inoculated in the right shoulder and performed the SPECT imaging study when tumor volume reached 68.7 ± 18.8 mm^3 at 10 days after injection of U87-MG cells. Evaluations of integrin-targeted blocking and radiotherapy treatment on the growth of U87-MG xenografts were carried out when tumor volume reached 59.4 ± 14.9 mm^3 (For authentic “cold” Re-peptide (^185/187Re-IDA-D-[c(RGDfK)]2) treatment) and 66.2 ± 15.3 mm^3 (For radiotherapy (^188Re-IDA-D-[c(RGDfK)]2) treatment) at 10 days after injection of U87-MG cells. Experiments with vehicle, negative control peptide (^188Re-IDA-D-[c(RADfK)]2) or ^188Re-IDA-D-[c(RGDfK)]2 treatments (11.1 MBq) in U87-MG xenografts were carried out when tumor volume reached 40.3 ± 14.8 mm^3 at 9 days after injection of U87-MG cells. […]
For caliper measurements, tumor length (longitudinal diameter) and tumor width (transverse diameter) were measured, and the tumor volume was calculated according to the following formula: tumor volume = (length × width^2)/2.

## Cn1nnc2c(C(N)=O)ncn2c1=O [TMZ, Temozolomide]
Integrin αvβ3
  integrin expression in tumor tissues: reduced integrin expression
U87-MG xenografts
  tumor size compared with saline treatment: significantly reduced tumor size
